Results: US4202824A, “Physiologically active derivatives of esterastin” (Zaidan Hojin Biseibutsu Kagaku Kenkyu Kai, priority 1978, dated 1980)
≈ marks a conversion by molar mass, not a printed value.

Assays:
pig pancreas esterase = assay: esterase-inhibiting activity, crude pig pancreas lipase preparation with p-nitrophenyl acetate as substrate; format: biochemical; conditions: for ID50, dose giving 50% inhibition to esterase: p-nitrophenyl acetate substrate, pH 7.0, 20° C., 30 minutes, pure products; for IC50: pig pancreas esterase, p-nitrophenyl acetate as the substrate, read-out: level giving 50% inhibition of the esterase
Description: Thus, a commercially available, crude lipase preparation obtained from pig pancreas is dissolved to a concentration of 0.5% (by weight) in a 0.05M phosphate buffered solution (pH 7.0) containing 0.2% "Triton X-100" (a trade name of an emulsifier consisting of a polyethyleneglycol alkylphenylether, a product of Rohm & Haas Co., U.S.A.). This lipase solution (0.03 ml), 2.92 ml of 0.05 M phosphate buffered solution (pH 7.0) and 0.025 ml of a solution containing a sample of the new compound to be assayed are mixed together, and the resulting mixture (2.975 ml) is warmed at 20° C. for 3 minutes and then admixed with 0.025 ml of a solution containing 10 mg/ml of p-nitrophenyl acetate in methanol to start the reaction of p-nitrophenyl acetate with lipase. After the enzymatic reaction is effected at 20° C. for 30 minutes, absorbance (a) at 400 nm of the resulting reaction solution is measured. On the other hand, absorbance (b) at 400 nm of a control reaction solution obtained from the blank test using the 0.05M phosphate buffered solution not containing the new compound to be assayed is measured in the same way as above. Degree (%) of inhibition to esterase is calculated according to the following equation: [formula]

cholesterol esterase = cholesterol esterase inhibition, cholesterol acetate as substrate, liberated cholesterol determined; format: biochemical; conditions: 37° C., 3 minutes; for cholesterol esterase-inhibiting activity relative to the parent esterastin: printed as 3-fold and 20 times higher
From the text: Furthermore, the new compounds of this invention all have advantageously a remarkably higher activity of inhibiting cholesterol esterase than the parent esterastin.

[1] = tested on: inflammation caused by carrageenin; conditions: background statement; cited from earlier work
[2] = tested on: cells forming humoral antibody; conditions: background statement; cited from earlier work
cell-mediated immunity = conditions: background statement; cited from earlier work
storage stability = format: physicochemical
From the text: In contrast, the new compound, tetrahydroesterastin is fairly stable so that it can be stored in the form of a powder as such for a long time of 1 year or more without lowering its activity.

[3] = tested on: esterase of pig pancrease; conditions: cited from earlier work

| Structure (SMILES) | ID50, dose giving 50% inhibition to esterase (pig pancreas esterase) | IC50 (pig pancreas esterase) | cholesterol esterase-inhibiting activity relative to the parent esterastin (cholesterol esterase) | stability on storage (in words) (storage stability) | further results |
| --- | --- | --- | --- | --- | --- |
| CCCCCC=CCC=CCC(O)CC1OC(=O)C1CCCCCC (centres unmarked) [3,5-di-hydroxy-2-hexylhexadeca-7,10-dienoic 1,3-lactone] | 7 ng/mL (≈ 0.02 µM) | 20 nM | about 20 fold |  | cholesterol esterase-inhibiting activity relative to tetrahydroesterastin (cholesterol esterase): about 7 times |
| CCCCCCCCCCCC(O)CC1OC(=O)C1CCCCCC (centres unmarked) [3,5-di-hydroxy-2-hexylhexadecanoic 1,3-lactone] | 9 ng/mL (≈ 0.0254 µM) | 25 nM |  |  |  |
| CCCCCC=CCC=CCC(CC1OC(=O)C1CCCCCC)OC(=O)C(CC(N)=O)NC(C)=O (centres unmarked) [esterastin] | 0.2 ng/mL (≈ 0.000395 µM) |  |  | fairly unstable | effect on inflammation caused by carrageenin [1]: inhibits the inflammation caused by carrageenin; effect on number of cells forming humoral antibody [2]: reduce the number of the cells forming humoral antibody; effect on cell-mediated immunity (cell-mediated immunity): suppress the cell-mediated immunity |
| CCOP(=O)(OCC)Oc1ccc([N+](=O)[O-])cc1 [paradoxon] |  |  |  |  | inhibition of the esterase of pig pancreas (in words) [3]: inhibit the esterase |
| CCCCCCCCCCCC(CC1OC(=O)C1CCCCCC)OC(=O)C(CC(N)=O)NC(C)=O (centres unmarked) [tetrahydroesterastin] | 3.3 ng/mL (≈ 0.00646 µM) | 6.4 nM | about 3 fold | fairly stable | storage time as powder without lowering its activity (storage stability; stored in the form of a powder as such): ≥ 1 year |
